The text below walks through data of ChEMBL document CHEMBL3046512, “Flubendiamide, a Novel Insecticide Highly Active against Lepidopterous Insect Pests” (J Pestic Sci, 2005).

Data set [1] deals with Plutella xylostella. The experiment in a line: Insecticidal activity against third-instar larvae of Plutella xylostella (diamondback moth) in cabbage leaf disk after 4 to 7 days by leaf dipping method. The data set is classed as functional, organism-based.
Data set [2] concerns Spodoptera litura. The experiment in a line: Insecticidal activity against fifth-instar larvae of Spodoptera litura in cabbage leaf disk after 4 to 7 days by leaf dipping method. The class given is functional, organism-based.
The subject of a further data set is Encarsia formosa. As to the kind of experiment: Toxicity in adult Encarsia formosa after 2 days by dry film method. The class given is organism-based. Particulars: in vivo, 48 h.
The subject of data set [3] is Spodoptera litura. As to the kind of experiment: Insecticidal activity against fifth-instar larvae of Spodoptera litura assessed as thickening and shortening without convulsion at 100 mg/l after 24 hr. The class given is functional, organism-based.
The next data set has as its system Neoseiulus cucumeris. As to the kind of experiment: Toxicity in adlult of Neoseiulus cucumeris after 2 days by spraying on food and insect method. The class given is organism-based. Conditions: in vivo, 48 h.
The test system of another data set is Helicoverpa armigera. The experiment in a line: Insecticidal activity against Helicoverpa armigera. The class given is functional, organism-based.
Data set [4] relates to Coccinella septempunctata brucki. The experiment in a line: Toxicity in adult of Coccinella septempunctata brucki after 4 days by insect dipping method. The class given is organism-based. Conditions: in vivo, 96 h.
The next data set concerns Autographa nigrisigna. The experiment in a line: Insecticidal activity against third-instar larvae of Autographa nigrisigna in cabbage leaf. The class given is functional, organism-based.
The subject of data set [5] is Spodoptera litura. As to the kind of experiment: Insecticidal activity against sixth-instar larvae of Spodoptera litura assessed as sustained body contraction at 0.24 ug/larvae after 24 hr. The class given is functional, organism-based.
The test system of a further data set is Phytoseiulus persimilis. As to the kind of experiment: Toxicity in adult of Phytoseiulus persimilis after 2 days by spraying on food and insect method. The data set is classed as organism-based. Conditions: in vivo, 48 h.
For another data set, the system named is Aphidoletes aphidimyza. The experiment in a line: Toxicity in larvae of Aphidoletes aphidimyza after 2 days by spraying on food and insect method. The data set is classed as organism-based. Conditions: in vivo, 48 h.
Another data set relates to Orius strigicollis. The experiment in a line: Toxicity in adult of Orius strigicollis after 2 days by spraying on food and insect method. The class given is organism-based. Particulars: in vivo, 48 h.
The subject of a further data set is Misumenops. As to the kind of experiment: Toxicity in adult of Misumenops tricuspidatus after 4 days by insect dipping method. Particulars: in vivo, 96 h. The class given is organism-based.
The test system of a further data set is Cotesia glomerata. The experiment in a line: Toxicity in adult Cotesia glomerata after 2 days by dry film method. The data set is classed as organism-based. Conditions: in vivo, 48 h.
A further data set deals with Pardosa pseudoannulata. The experiment in a line: Toxicity in adult of Pardosa pseudoannulata after 4 days by insect dipping method. The class given is organism-based. Conditions: in vivo, 96 h.
For the next data set, the system named is Adoxophyes honmai. As to the kind of experiment: Insecticidal activity against fourth-instar larvae of Adoxophyes honmai in tea leaf. The class given is functional, organism-based.
The test system of the next data set is Chilo suppressalis. The experiment in a line: Insecticidal activity against third-instar larvae of Chilo suppressalis (rice stem borer) […]. The data set is classed as functional, organism-based.
For the next data set, the system named is Agrotis segetum. The experiment in a line: Insecticidal activity against two to third-instar larvae of Agrotis segetum in cabbage leaf. The data set is classed as functional, organism-based.
Data set [6] relates to Plutella xylostella. The experiment in a line: Insecticidal activity against third-instar larvae of insecticide-resistant Plutella xylostella (diamondback moth) in cabbage leaf disk after 4 to 7 days by leaf dipping method. The class given is functional, organism-based.
In another data set the test system is Homona magnanima. As to the kind of experiment: Insecticidal activity against fourth-instar larvae of Homona magnanima in tea leaf. The data set is classed as functional, organism-based.
A further data set relates to Pieris rapae crucivora. As to the kind of experiment: Insecticidal activity against second to third-instar larvae of Pieris rapae crucivora. The class given is functional, organism-based.
Another data set relates to Harmonia axyridis. The experiment in a line: Toxicity in adult of Harmonia axyridis after 4 days by insect dipping method. The data set is classed as organism-based. Conditions: in vivo, 96 h.
The subject of data set [7] is Spodoptera litura. The experiment in a line: Insecticidal activity against fifth-instar larvae of Spodoptera litura assessed as gradual contraction of insect body at 100 mg/l after 24 hr. The data set is classed as functional, organism-based.
For a further data set, the system named is Hellula undalis. The experiment in a line: Insecticidal activity against third-instar larvae of Hellula undalis in cabbage leaf. The class given is functional, organism-based.
The subject of another data set is Chrysoperla carnea. As to the kind of experiment: Toxicity in larvae of Chrysoperla carnea after 2 days by spraying on food and insect method. The data set is classed as organism-based. Particulars: in vivo, other, 48 h.
For another data set, the system named is Aphidius colemani. As to the kind of experiment: Toxicity in adlult of Aphidius colemani after 2 days by dry film method. The data set is classed as organism-based. Particulars: in vivo, 48 h.
The test system of data set [8] is Plutella xylostella. The experiment in a line: Insecticidal activity against third-instar larvae of benzoylphenylurea-resistant Plutella xylostella (diamondback moth) in cabbage leaf disk after 4 to 7 days by leaf dipping method. The class given is functional, organism-based.
In data set [9] the test system is Plutella xylostella. The experiment in a line: Insecticidal activity against third-instar larvae of organophosphate-resistant Plutella xylostella (diamondback moth) in cabbage leaf disk after 4 to 7 days by leaf dipping method. The class given is functional, organism-based.
The test system of data set [10] is Plutella xylostella. The experiment in a line: Insecticidal activity against third-instar larvae of carbamate-resistant Plutella xylostella (diamondback moth) in cabbage leaf disk after 4 to 7 days by leaf dipping method. The class given is functional, organism-based.
Data set [11] has as its system Plutella xylostella. The experiment in a line: Insecticidal activity against third-instar larvae of synthetic pyrethroid-resistant Plutella xylostella (diamondback moth) in cabbage leaf disk after 4 to 7 days by leaf dipping method. The class given is functional, organism-based.
Data set [12] relates to Spodoptera litura. As to the kind of experiment: Insecticidal activity against sixth-instar larvae of Spodoptera litura assessed as sustained body contraction at 2.4 ug/larvae after 24 hr. The data set is classed as functional, organism-based.

Active and inactive are the calls of the source. The calls are words filed in the database; no cut-off is given here. Bounds are passed on as bounds.

As for `Cc1cc(C(F)(C(F)(F)F)C(F)(F)F)ccc1NC(=O)c1cccc(I)c1C(=O)NC(C)(C)C`, the EC50 with Plutella xylostella [1] and with Spodoptera litura [2] was 0.3 mgAi/L throughout.
In the case of `Cc1cc(C(F)(C(F)(F)F)C(F)(F)F)ccc1NC(=O)c1cccc(I)c1C(=O)NC(C)(C)CS(C)(=O)=O` [FLUBENDIAMIDE], the EC30 was greater than 400 mgAi/L in the data set with Encarsia formosa; greater than 200 mgAi/L in the data set with Neoseiulus cucumeris; greater than 200 mgAi/L in [4]; greater than 200 mgAi/L with Phytoseiulus persimilis; greater than 100 mgAi/L with Aphidoletes aphidimyza; greater than 100 mgAi/L in the data set with Orius strigicollis. Besides, the EC30 in the data set with Misumenops is greater than 200 mgAi/L; in the data set with Cotesia glomerata it was greater than 100 mgAi/L; in the data set on Pardosa pseudoannulata it was greater than 100 mgAi/L; in the data set with Harmonia axyridis, greater than 200 mgAi/L; with Chrysoperla carnea it was greater than 100 mgAi/L; in the data set with Aphidius colemani it was greater than 400 mgAi/L. For the same compound, the outcome with Spodoptera litura [3], in the data set on Helicoverpa armigera, with Spodoptera litura [5] and in the data set with Spodoptera litura [7] was Active. For the same compound, the EC50 with Plutella xylostella [1] was 0.001 mgAi/L; in the data set with Autographa nigrisigna, 0.02 mgAi/L; in the data set on Spodoptera litura [2], 0.03 mgAi/L; with Adoxophyes honmai, 0.38 mgAi/L; with Chilo suppressalis it was less than 0.01 mgAi/L; with Agrotis segetum it was 0.18 mgAi/L. Besides, the EC50 in the data set with Plutella xylostella [6] is 0.002 mgAi/L; in the data set on Homona magnanima, 0.58 mgAi/L; in the data set on Pieris rapae crucivora, 0.03 mgAi/L; with Hellula undalis, 0.01 mgAi/L.
As for `Cc1cc(Cl)ccc1NC(=O)c1cccc(Cl)c1C(=O)NC(C)C`, the EC50 amounted to 1 mgAi/L in the data set on Plutella xylostella [1] and 10 mgAi/L in the data set with Spodoptera litura [2].
On the same counts, the results for `Cc1cc(Cl)ccc1NC(=O)c1cccc(I)c1C(=O)NC(C)C` are 0.3 mgAi/L and 3 mgAi/L.
For `O=C(NC(=O)c1c(F)cccc1F)Nc1ccc(Oc2ccc(C(F)(F)F)cc2Cl)cc1F` [FLUFENOXURON], the results for the EC50 in the data set with Plutella xylostella [8] and with Plutella xylostella [1] were 233 mgAi/L and 0.05 mgAi/L, respectively.
For the compound `Cc1cc(Cl)ccc1NC(=O)c1ccccc1C(=O)NC(C)C`, the EC50 with Plutella xylostella [1] came to 3 mgAi/L; in the data set on Spodoptera litura [2] it was 10 mgAi/L.
Taken in the same sequence, the figures for `Cc1cc(OC(F)(F)F)ccc1NC(=O)c1cccc(I)c1C(=O)NC(C)C` were 0.3 mgAi/L and 1 mgAi/L.
For `CCCSP(=S)(OCC)Oc1ccc(Cl)cc1Cl` (stereo unspecified) [PROTHIOFOS], the EC50 came to 3.78 mgAi/L in the data set on Plutella xylostella [1] and 24.2 mgAi/L with Plutella xylostella [9].
Turning to `Cc1cc(Cl)ccc1NC(=O)c1cc(Cl)ccc1C(=O)NC(C)C`, the EC50 with Plutella xylostella [1] was 50 mgAi/L; with Spodoptera litura [2] it was greater than 500 mgAi/L.
Taken in the same sequence, the figures for `Cc1cc(Cl)ccc1NC(=O)c1cccc(F)c1C(=O)NC(C)C` were 1 mgAi/L and greater than 500 mgAi/L.
On the same counts, the results for `Cc1cc(Cl)ccc1NC(=O)c1ccc(Cl)cc1C(=O)NC(C)C` are 5 mgAi/L and greater than 500 mgAi/L.
In the case of `Cc1cc(Cl)ccc1NC(=O)c1cccc([N+](=O)[O-])c1C(=O)NC(C)C`, the EC50 in the data set with Plutella xylostella [1] and in the data set with Spodoptera litura [2] was 10 mgAi/L in each case.
Take `CNC(=O)ON=C(C)SC` [METHOMYL]: the EC50 with Plutella xylostella [10] is 287 mgAi/L; in the data set on Plutella xylostella [1] it was 14.5 mgAi/L.
Regarding `CC1(C)C(/C=C(\Cl)C(F)(F)F)C1C(=O)OC(C#N)c1cccc(Oc2ccccc2)c1` (stereo unspecified) [CYHALOTHRIN], the EC50 is listed as 869 mgAi/L in the data set with Plutella xylostella [11] and 0.24 mgAi/L in the data set on Plutella xylostella [1].
Take `COc1ccc(NC(=O)c2cccc(I)c2C(=O)NC(C)C)c(C)c1`: the EC50 in the data set with Plutella xylostella [1] is 10 mgAi/L; with Spodoptera litura [2] it was 30 mgAi/L.
In the case of `CC(=O)NCC(C)(C)NC(=O)c1c(I)cccc1C(=O)Nc1ccc(C(F)(C(F)(F)F)C(F)(F)F)cc1C`, the EC50 in the data set with Spodoptera litura [2] came out at 0.1 mgAi/L.
Turning to `Cc1c(Cl)cccc1NC(=O)c1cccc(I)c1C(=O)NC(C)C`, the EC50 in the data set on Plutella xylostella [1] amounted to 3 mgAi/L; in the data set on Spodoptera litura [2] it was 10 mgAi/L.
Taken in the same sequence, the figures for `Cc1cc(Cl)ccc1NC(=O)c1c(Cl)cccc1C(=O)NC(C)C` were 10 mgAi/L and greater than 500 mgAi/L.
Taken in the same sequence, the figures for `Cc1cc(C(F)(C(F)(F)F)C(F)(F)F)ccc1NC(=O)c1cccc(I)c1C(=O)NC(C)C` were 0.1 mgAi/L and 0.3 mgAi/L.
On the same counts, the results for `Cc1cc(Cl)ccc1NC(=O)c1cccc(Br)c1C(=O)NC(C)C` are 1 mgAi/L and 10 mgAi/L.
Regarding `CC(C)[C@@]1(O)[C@@H](OC(=O)c2cc[nH]c2)[C@@]2(O)[C@]3(C)C[C@@]4(O)O[C@@]5([C@H](O)[C@@H](C)CC[C@]35O)[C@@]2(O)[C@@]41C`, in the data set on Spodoptera litura [12], the outcome was Active.
Turning to `Cc1ccc(Cl)cc1NC(=O)c1cccc(I)c1C(=O)NC(C)C`, the EC50 in the data set with Plutella xylostella [1] amounted to 3 mgAi/L; in the data set with Spodoptera litura [2] it was 10 mgAi/L.
